Species: Rattus norvegicus
Assay: DrugMatrix - Regimen: Daily Repeat
Assay type: toxicity, organism-based, Sprague-Dawley
Set-up: regimen Daily Repeat, gender Male, age 6-8 weeks
Conditions: in vivo, po, route oral GAVAGE, vehicle 100 % WATER; for ABSOLUTE BASOPHIL / ABSOLUTE EOSINOPHIL / ABSOLUTE LYMPHOCYTE / ABSOLUTE MONOCYTE / ABSOLUTE SEGMENTED NEUTROPHIL / BASOPHIL / EOSINOPHIL / ERYTHROCYTE COUNT / HEMATOCRIT / HEMOGLOBIN / LEUKOCYTE COUNT / LYMPHOCYTE / MEAN CORPUSCULAR HEMOGLOBIN / MEAN CORPUSCULAR HEMOGLOBIN CONCENTRATION / MEAN CORPUSCULAR VOLUME / MONOCYTE / NEUTROPHIL / NUCLEATED RED BLOOD CELLS / PLATELET COUNT: tissue Blood; for ALANINE AMINOTRANSFERASE / ALBUMIN / ALKALINE PHOSPHATASE / ASPARTATE AMINOTRANSFERASE / BLOOD UREA NITROGEN / CARBON DIOXIDE / CHLORIDE / CHOLESTEROL / CREATINE PHOSPHOKINASE / CREATININE / GLUCOSE / LACTATE DEHYDROGENASE / LIPASE / PHOSPHORUS / POTASSIUM / SODIUM / TOTAL BILIRUBIN / TOTAL PROTEIN / URIC ACID: tissue Plasma
[1] = 0 mg/kg, 72 h, dose level Control, time 3 day
[2] = 0 mg/kg, 120 h, dose level Control, time 5 day
[3] = 200 mg/kg, 72 h, dose level Low, time 3 day

CC(O)CO (centres undefined) [PROPYLENE GLYCOL]
ABSOLUTE BASOPHIL [1]: 0 CELLS/uL
ABSOLUTE EOSINOPHIL [1]: 40 CELLS/uL
ABSOLUTE LYMPHOCYTE [1]: 13599.5 CELLS/uL
ABSOLUTE MONOCYTE [1]: 239.33 CELLS/uL
ABSOLUTE SEGMENTED NEUTROPHIL [1]: 1021.17 CELLS/uL
BASOPHIL [1]: 0%
EOSINOPHIL [1]: 0.33%
ERYTHROCYTE COUNT [1]: 5.71 x10E6/uL
HEMATOCRIT [1]: 36.35%
HEMOGLOBIN [1]: 14.05 G/DL
LEUKOCYTE COUNT [1]: 14.9 x10E3/uL
LYMPHOCYTE [1]: 91%
MEAN CORPUSCULAR HEMOGLOBIN [1]: 24.62 pg
MEAN CORPUSCULAR HEMOGLOBIN CONCENTRATION [1]: 38.65 G/DL
MEAN CORPUSCULAR VOLUME [1]: 63.7 fL
MONOCYTE [1]: 1.5%
NEUTROPHIL [1]: 7.17%
NUCLEATED RED BLOOD CELLS [1]: 0.33 /100WBC
PLATELET COUNT [1]: 1225.5 x10E3/uL
ALANINE AMINOTRANSFERASE [1]: 48.5 u/L
ALBUMIN [1]: 4.18 G/DL
ALKALINE PHOSPHATASE [1]: 390.83 u/L
ASPARTATE AMINOTRANSFERASE [1]: 89 u/L
BLOOD UREA NITROGEN [1]: 14.83 mg/dL
CARBON DIOXIDE [1]: 24.83 mmol/L
CHLORIDE [1]: 100.83 MEQ/L
CHOLESTEROL [1]: 72.5 mg/dL
CREATINE PHOSPHOKINASE [1]: 503 u/L
CREATININE [1]: 0.2 mg/dL
GLUCOSE [1]: 163 mg/dL
LACTATE DEHYDROGENASE [1]: 316.83 u/L
LIPASE [1]: 9.83 u/L
PHOSPHORUS [1]: 11.57 mg/dL
POTASSIUM [1]: 6.16 MEQ/L
SODIUM [1]: 142.62 MEQ/L
TOTAL BILIRUBIN [1]: 0.2 mg/dL
TOTAL PROTEIN [1]: 5.8 G/DL
URIC ACID [1]: 1.65 mg/dL
ABSOLUTE BASOPHIL [2]: 0 CELLS/uL
ABSOLUTE EOSINOPHIL [2]: 21 CELLS/uL
ABSOLUTE LYMPHOCYTE [2]: 14288.5 CELLS/uL
ABSOLUTE MONOCYTE [2]: 205.33 CELLS/uL
ABSOLUTE SEGMENTED NEUTROPHIL [2]: 968.5 CELLS/uL
BASOPHIL [2]: 0%
EOSINOPHIL [2]: 0.17%
ERYTHROCYTE COUNT [2]: 5.83 x10E6/uL
HEMATOCRIT [2]: 36.53%
HEMOGLOBIN [2]: 14.4 G/DL
LEUKOCYTE COUNT [2]: 15.48 x10E3/uL
LYMPHOCYTE [2]: 92%
MEAN CORPUSCULAR HEMOGLOBIN [2]: 24.72 pg
MEAN CORPUSCULAR HEMOGLOBIN CONCENTRATION [2]: 39.43 G/DL
MEAN CORPUSCULAR VOLUME [2]: 62.68 fL
MONOCYTE [2]: 1.33%
NEUTROPHIL [2]: 6.5%
NUCLEATED RED BLOOD CELLS [2]: 0.17 /100WBC
PLATELET COUNT [2]: 1280.5 x10E3/uL
ALANINE AMINOTRANSFERASE [2]: 50 u/L
ALBUMIN [2]: 4.28 G/DL
ALKALINE PHOSPHATASE [2]: 380.17 u/L
ASPARTATE AMINOTRANSFERASE [2]: 82.67 u/L
BLOOD UREA NITROGEN [2]: 15.33 mg/dL
CARBON DIOXIDE [2]: 27.17 mmol/L
CHLORIDE [2]: 100.33 MEQ/L
CHOLESTEROL [2]: 60.67 mg/dL
CREATINE PHOSPHOKINASE [2]: 441.5 u/L
CREATININE [2]: 0.16 mg/dL
GLUCOSE [2]: 146 mg/dL
LACTATE DEHYDROGENASE [2]: 189.33 u/L
LIPASE [2]: 9.17 u/L
PHOSPHORUS [2]: 11.67 mg/dL
POTASSIUM [2]: 6.86 MEQ/L
SODIUM [2]: 142.33 MEQ/L
TOTAL BILIRUBIN [2]: 0.2 mg/dL
TOTAL PROTEIN [2]: 6.12 G/DL
URIC ACID [2]: 1.82 mg/dL
ABSOLUTE BASOPHIL [3]: 0 CELLS/uL
ABSOLUTE EOSINOPHIL [3]: 56 CELLS/uL
ABSOLUTE LYMPHOCYTE [3]: 15882 CELLS/uL
ABSOLUTE MONOCYTE [3]: 135.33 CELLS/uL
ABSOLUTE SEGMENTED NEUTROPHIL [3]: 1393.33 CELLS/uL
BASOPHIL [3]: 0%
EOSINOPHIL [3]: 0.33%
ERYTHROCYTE COUNT [3]: 5.52 x10E6/uL
HEMATOCRIT [3]: 35.37%
HEMOGLOBIN [3]: 13.53 G/DL
LEUKOCYTE COUNT [3]: 17.47 x10E3/uL
LYMPHOCYTE [3]: 90.67%
MEAN CORPUSCULAR HEMOGLOBIN [3]: 24.5 pg
MEAN CORPUSCULAR HEMOGLOBIN CONCENTRATION [3]: 38.27 G/DL
MEAN CORPUSCULAR VOLUME [3]: 64.1 fL
MONOCYTE [3]: 0.67%
NEUTROPHIL [3]: 8.33%
NUCLEATED RED BLOOD CELLS [3]: 0.33 /100WBC
PLATELET COUNT [3]: 1345.33 x10E3/uL
ALANINE AMINOTRANSFERASE [3]: 59 u/L
ALBUMIN [3]: 4.47 G/DL
ALKALINE PHOSPHATASE [3]: 378.33 u/L
ASPARTATE AMINOTRANSFERASE [3]: 90.33 u/L
BLOOD UREA NITROGEN [3]: 16.33 mg/dL
CARBON DIOXIDE [3]: 27.33 mmol/L
CHLORIDE [3]: 99.67 MEQ/L
CHOLESTEROL [3]: 81.33 mg/dL
CREATINE PHOSPHOKINASE [3]: 318 u/L
CREATININE [3]: 0.22 mg/dL
GLUCOSE [3]: 153.67 mg/dL
LACTATE DEHYDROGENASE [3]: 212.33 u/L
LIPASE [3]: 9 u/L
PHOSPHORUS [3]: 13.4 mg/dL
POTASSIUM [3]: 7.26 MEQ/L
SODIUM [3]: 145.23 MEQ/L
TOTAL BILIRUBIN [3]: 0.2 mg/dL
TOTAL PROTEIN [3]: 6.13 G/DL
URIC ACID [3]: 2.2 mg/dL

— ChEMBL document CHEMBL3885881, “DrugMatrix”
